# Data reported in patent publication US6956040B2, “Oxazolidinone piperazinyl derivatives as potential antimicrobials” (Ranbaxy Laboratories Limited, priority 2001, dated 2005).
# Read-outs that look alike come from different tables or passages of the source.
# Experiments:
# S. pyogenes 19615 = experiment: MIC, agar incorporation method; type: cell-based, Streptococcus pyogenes; conditions: S. pyogenes 19615, agar incorporation
# From the text: (§1) The compounds of the invention display antibacterial activity when tested by the agar incorporation method. The following minimum inhibitory concentrations (μg/ml) were obtained for representative compounds of the invention which are given below in the following tables.
# (§2) • 1) S.aureus ATCC 25923—Staphylococus aureus ATCC 25923 • 2) MRSA 15187—Methicillin Resistant Staphylococcus aureus • 3) Ent. faecalis ATCC 29212—Enterococcus faecalis ATCC 29212 • 4) Ent. faecium 6A—Enterococcus faecium 6A Van®, Cipro® • 5) Strep. pne. ATCC 6303—Streptococcus pneumoniae ATCC 6303 • 6) Strep. pyog. ATCC 19615—Streptococcus pyogenes • 7) S. epidermidis—Staphylococcus epidermidis ATCC 12228
# (§3) Briefly, the compounds were dissolved in DMSO and doubling dilution of the compounds were incorporated into Meuller Hilton agar before solidification. Inoculum was prepared by suspending 4 to 5 colonies into 5 ml of normal saline solution and adjusting the turbidity to 0.5 Macfarland turbidity standard tables (1.5×10^8 CFU/ml), after appropriate dilutions, 10^4 CFU/spot was transfered into the surface of dried plate and incubated for 18 hours (24 hours for MRSN studies). The concentration showing no growth of the inoculated culture was recorded as the MIC. Appropriate ATCC standard strains were simultaneously tested and result recorded only when the MIC's against standard antibiotics were within the acceptable range.
# E. faecalis = experiment: Summary of in vitro activity (MIC) against E. faecalis; type: cell-based, Enterococcus faecalis; conditions: E. faecalis; for MIC50 / MIC90: Number 7
# Protocol: as §1, §3
# S. aureus = experiment: Summary of in vitro activity (MIC) against S. aureus; type: cell-based, Staphylococcus aureus; conditions: S. aureus; for MIC50 / MIC90: Number 8
# Protocol: as §1, §3
# MRSA 562 [1] = experiment: In vivo activity against MRSA 562 (ED50); parameters: species or system Staphylococcus aureus
# E. faecalis 29212 = experiment: MIC, agar incorporation method; type: cell-based, Enterococcus faecalis; conditions: E. faecalis 29212, agar incorporation
# From the text: as §1, §2, §3
# VRE 6A = experiment: MIC, agar incorporation method; type: cell-based, Enterococcus faecium; conditions: VRE 6A, agar incorporation
# From the text: as §1, §2, §3
# G+ve = experiment: Summary of in vitro activity (MIC) against G+ve bacteria; type: cell-based; conditions: for MIC50 / MIC90: G+ve, Number 49
# Protocol: as §1, §3
# S. pneum AB 34 = experiment: MIC, agar incorporation method; type: cell-based, Streptococcus pneumoniae; conditions: S. pneum AB 34, agar incorporation
# Protocol: as §1, §3
# S. pneumoniae = experiment: Summary of in vitro activity (MIC) against S. pneumoniae; type: cell-based, Streptococcus pneumoniae; conditions: S. pneumoniae; for MIC50 / MIC90: Number 19
# Protocol: as §1, §3
# S. pneum 6303 = experiment: MIC, agar incorporation method; type: cell-based, Streptococcus pneumoniae; conditions: S. pneum 6303, agar incorporation
# From the text: as §1, §2, §3
# MRSA 562 [2] = experiment: MIC, agar incorporation method; type: cell-based, Staphylococcus aureus; conditions: MRSA 562
# Protocol: as §1, §3
# MRSA 33 = experiment: MIC, agar incorporation method; type: cell-based, Staphylococcus aureus; conditions: MRSA 33, agar incorporation
# Protocol: as §1, §3
# MRSA 15187 = experiment: MIC, agar incorporation method; type: cell-based, Staphylococcus aureus; conditions: MRSA 15187, agar incorporation
# From the text: as §1, §2, §3
# S. aureus 25923 = experiment: MIC, agar incorporation method; type: cell-based, Staphylococcus aureus; conditions: S. aureus 25923, agar incorporation
# From the text: as §1, §2, §3
# [3] = Changes in MIC under different conditions: Agar MIC; type: cell-based; conditions: strain not given
# Protocol: as §1, §3
# [4] = Changes in MIC under different conditions: Broth MIC; type: cell-based; conditions: strain not given
# [5] = Staphylococcus aureus, read-out: MIC
smiles,measurement,setting,value
"CC(=O)NC[C@H]1CN(c2ccc(N3CCN(C(=O)c4ccc([N+](=O)[O-])o4)CC3)c(F)c2)C(=O)O1 [Compound No. 06, (S)-N-[[3-Fluoro-4-[N-1[4-(5-nitro-2-furoyl)piperazinyl]phenyl]-2-oxo-5-oxazolidinyl]methyl]acetamide]",MIC,S. pyogenes 19615,2 µg/mL
same,Geometric Mean of in vitro activity (MIC),E. faecalis,0.92 µg/mL
same,MIC50,E. faecalis,1 µg/mL
same,MIC90,E. faecalis,1 µg/mL
same,Geometric Mean of in vitro activity (MIC),S. aureus,0.74 µg/mL
same,MIC50,S. aureus,1 µg/mL
same,MIC90,S. aureus,1 µg/mL
same,ED50 (mg/kg body weight) PO,MRSA 562 [1],>25 mg/kg body weight
same,MIC,E. faecalis 29212,1 µg/mL
same,MIC,VRE 6A,1 µg/mL
same,MIC50,G+ve,1 µg/mL
same,MIC90,G+ve,2 µg/mL
same,Geometric Mean of in vitro activity (MIC),G+ve; Gram +ve,0.79 µg/mL
same,MIC,S. pneum AB 34,2 µg/mL
same,Geometric Mean of in vitro activity (MIC),S. pneumoniae,1.27 µg/mL
same,MIC50,S. pneumoniae,2 µg/mL
same,MIC90,S. pneumoniae,2 µg/mL
same,MIC,S. pneum 6303,2 µg/mL
same,MIC,MRSA 562 [2]; Table 5,1 µg/mL
same,MIC,MRSA 33,0.5 µg/mL
same,MIC,MRSA 15187,0.5 µg/mL
same,MIC,S. aureus 25923,1 µg/mL
"CC(=O)NC[C@H]1CN(c2ccc(N3CC4C(C3)C4N(C)C(=O)Cc3cccs3)c(F)c2)C(=O)O1 (stereo partly drawn) [Compound No. 71, (S)-N-[[3-[3-Fluoro[4-[3-(1α, 5α, 6α)-6-[N-(2-thiopheneacetyl)-N-methyl]amino]-3-azabicyclo-[3.1.0]hexane]phenyl]-2-oxo-5-oxazolidinyl]methyl]acetamide]",MIC,S. pyogenes 19615,2 µg/mL
same,ED50 (mg/kg body weight) PO,MRSA 562 [1],>25 mg/kg body weight
same,MIC,E. faecalis 29212,4 µg/mL
same,MIC,VRE 6A,4 µg/mL
same,MIC,S. pneum AB 34,4 µg/mL
same,MIC,S. pneum 6303,4 µg/mL
same,MIC,MRSA 562 [2]; Table 5,4 µg/mL
same,MIC,MRSA 33,4 µg/mL
same,MIC,MRSA 15187,4 µg/mL
same,MIC,S. aureus 25923,4 µg/mL
CC(=O)NC[C@H]1CN(c2ccc(N3CCN(Cc4ccc([N+](=O)[O-])o4)CC3)c(F)c2)C(=O)O1.Cl [Compound No. 16],MIC,S. pyogenes 19615,0.5 µg/mL
same,MIC,E. faecalis 29212,2 µg/mL
same,MIC,VRE 6A,4 µg/mL
same,MIC,S. pneum AB 34,1 µg/mL
same,Agar MIC,[3],2 µg/mL
same,MIC,S. pneum 6303,1 µg/mL
same,Broth MIC +50% Sheep serum,[4],2 µg/mL
same,Broth MIC Normal MH broth,[4],2 µg/mL
same,MIC,MRSA 33,4 µg/mL
same,MIC,MRSA 15187,4 µg/mL
same,MIC,S. aureus 25923,2 µg/mL
"CC(=O)NC[C@H]1CN(c2ccc(N3CCOCC3)c(F)c2)C(=O)O1 [Linezolid, reference compound]",MIC,"S. pyogenes 19615; Streptococcus pyogenes, read-out: MIC",2 µg/mL
same,MIC50,"E. faecalis; Enterococcus faecalis, read-out: MIC50",4 µg/mL
same,MIC90,"E. faecalis; Enterococcus faecalis, read-out: MIC90",16 µg/mL
same,MIC,"E. faecalis; Enterococcus faecalis, read-out: Geometric Mean of in vitro activity (MIC)",4 µg/mL
same,MIC50,"S. aureus; Staphylococcus aureus, read-out: MIC50",2 µg/mL
same,MIC90,"S. aureus; Staphylococcus aureus, read-out: MIC90",4 µg/mL
same,MIC,"S. aureus; Staphylococcus aureus, read-out: Geometric Mean of in vitro activity (MIC)",2.38 µg/mL
same,MIC,"E. faecalis 29212; Enterococcus faecalis, read-out: MIC",2 µg/mL
same,MIC,"VRE 6A; Enterococcus, read-out: MIC",2 µg/mL
same,MIC50,G+ve; read-out: MIC50,2 µg/mL
same,MIC90,G+ve; read-out: MIC90,4 µg/mL
same,MIC,"G+ve; Gram +ve, read-out: Geometric Mean of in vitro activity (MIC)",1.25 µg/mL
same,MIC,"S. pneum AB 34; Streptococcus pneumoniae, AB34, read-out: MIC",4 µg/mL
same,Agar MIC,[3],2 µg/mL
same,MIC50,"S. pneumoniae; Streptococcus pneumoniae, read-out: MIC50",0.5 µg/mL
same,MIC90,"S. pneumoniae; Streptococcus pneumoniae, read-out: MIC90",2 µg/mL
same,MIC,"S. pneumoniae; Streptococcus pneumoniae, read-out: Geometric Mean of in vitro activity (MIC)",0.6 µg/mL
same,MIC,"S. pneum 6303; Streptococcus pneumoniae, read-out: MIC",2 µg/mL
same,Broth MIC +50% Sheep serum,[4],2 µg/mL
same,Broth MIC Normal MH broth,[4],1 µg/mL
same,MIC,MRSA 562 [2]; Table 5,2 µg/mL
same,MIC,"MRSA 562 [2]; Staphylococcus aureus, agar incorporation, Table 1, read-out: MIC",2 µg/mL
same,MIC,MRSA 33; [5],2 µg/mL
same,MIC,MRSA 15187; [5],1 µg/mL
same,MIC,S. aureus 25923; [5],2 µg/mL
